Laboratory results taken from PMC4519180, “Fluorescence Polarization Screening Assays for Small Molecule Allosteric Modulators of ABL Kinase Function” (PLoS ONE, 2015).

Key:
[1] = biological target: T1, ABL N32L protein (Ncap-SH3-SH2-linker) (Homo sapiens, UniProt P00519, DEL15-56); assay: Fluorescence polarization (FP) assay, ABL N32L protein with p41 probe peptide; assay type: binding
T1 construct: corresponding to residues 2–255 with an internal deletion of residues 15–56; Gly-His6 (GHHHHHH) (N); made in house; host or cells: E. coli Rosetta2(DE3)pLysS
T1 sequence (P00519 with tags, fused parts or gaps isoform P00519-2 DEL15-56): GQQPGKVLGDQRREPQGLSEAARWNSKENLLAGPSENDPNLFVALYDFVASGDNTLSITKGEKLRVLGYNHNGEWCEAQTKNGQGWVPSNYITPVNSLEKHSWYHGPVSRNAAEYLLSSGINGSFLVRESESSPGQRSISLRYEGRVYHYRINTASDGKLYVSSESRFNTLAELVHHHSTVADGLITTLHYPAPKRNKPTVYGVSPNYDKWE
Procedure: (§1) Fluorescence Polarization (FP) experiments were performed in quadruplicate in low volume black 384 well plates with a non-binding surface (Corning; catalog # 3676). Peptides and proteins were added to each well in FP assay buffer (20 mM Tris-HCl, pH 8.3) for a final assay volume of 20 μL and mixed by shaking for 5 min at room temperature. The FP signal in millipolarization (mP) units was measured at an excitation wavelength of 485 nm and emission wavelength of 515 nm in a SpectraMax M5 microplate reader (Molecular Devices) using the Softmax Pro software (version 5.4.1). Each plate was read three times and the values were averaged prior to analysis. Raw fluorescence intensity was also read at the same wavelengths for each assay.
A collection of 1200 FDA-approved small molecules (Prestwick Chemical, Inc.) was used in a pilot screen with the FP assay. Each library compound was screened at 10 μM and a final DMSO concentration of 1%. Compounds were added to 384-well assay plates first, followed by a pre-mixed complex of the ABL N32L protein (25 μg) and the p41 probe peptide (50 nM). Each plate also contained twenty-eight wells of the wild type N32L protein plus p41 probe and DMSO as positive controls as well as twenty-eight wells of mutant ABL N32L-W118A protein plus p41 probe peptide and DMSO as negative controls. Each plate was mixed on the shaker for 5 min, read three consecutive times, and the average FP signal for each well was calculated. To identify potential hit compounds, three measures were used: (i) average FP signal; (ii) control normalized percent inhibition, in which the FP signal with each compound was normalized to the mean FP signal of the positive and negative plate controls according to the formula: [(sample FP–mean FPWT) / (mean FPW118A –mean FPWT) x 100] [22, 23]; (iii) Z score, a statistical measure of variation of the mean sample FP signal that is independent of plate controls, calculated according to the formula: [(sample FP–mean FPsamples) / standard deviationsamples] [22, 23]. […]

[2] = biological target: T2, wild type ABL kinase core (Homo sapiens, UniProt P00519, DEL15-56); assay: ADP Quest kinetic kinase assay, wild type ABL core; assay type: biochemical; settings: 30 min pre-incubation; ATP and substrate at Km; mean ± SE, triplicate; read-out: EC50 for activation of ABL core
T2 construct: ABL core proteins (residues 1–531 with an internal deletion of residues 15–56); made in house; host or cells: Sf9 insect cells
T2 sequence (P00519 with tags, fused parts or gaps isoform P00519-2 DEL15-56): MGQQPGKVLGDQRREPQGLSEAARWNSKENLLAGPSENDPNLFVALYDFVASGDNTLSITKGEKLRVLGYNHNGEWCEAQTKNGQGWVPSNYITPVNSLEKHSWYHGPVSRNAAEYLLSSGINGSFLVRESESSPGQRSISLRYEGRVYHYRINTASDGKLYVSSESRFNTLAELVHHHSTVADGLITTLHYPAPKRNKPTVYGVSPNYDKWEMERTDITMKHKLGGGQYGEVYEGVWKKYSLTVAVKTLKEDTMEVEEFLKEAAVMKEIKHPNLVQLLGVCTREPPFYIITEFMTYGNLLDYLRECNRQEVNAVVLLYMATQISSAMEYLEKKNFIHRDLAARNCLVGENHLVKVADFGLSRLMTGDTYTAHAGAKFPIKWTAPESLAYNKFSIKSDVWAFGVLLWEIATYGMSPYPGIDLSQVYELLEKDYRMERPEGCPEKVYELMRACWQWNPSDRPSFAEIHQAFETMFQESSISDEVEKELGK

[3] = system: wild type ABL core expressed in 293T cells; assay: ABL core autophosphorylation in transfected 293T cells (immunoblot); assay type: cell-based, human; settings: for Effect on ABL phosphorylation (pY412, pY245, pY89), compound alone: compound 142 1–10 μM or DPH 10 μM
Procedure: ABL core proteins were expressed in human 293T cells and analyzed for kinase activity as described elsewhere. Briefly, cells were grown overnight in 60 mm plates, transfected with an expression vector for the wild type ABL core, and treated with compounds 2 h post- transfection. Cells were lysed by sonication 24 h later, and cell lysates clarified by centrifugation. ABL was immunoprecipitated via the C-terminal His-tag, resolved by SDS-PAGE, and transferred to nitrocellulose membranes for immunoblot analysis with antibodies to the ABL protein and the three autophosphorylation sites: pTyr412 (activation loop), pTyr245 (SH2-kinase linker), and pTyr89 (SH3 domain).

[4] = system: ABL core with high-affinity linker (HAL); assay: ADP Quest kinetic kinase assay, high-affinity linker ABL core; assay type: biochemical, human; settings: 10 μM; ATP and substrate at Km
Procedure: The ADP Quest assay (DiscoverRx), which fluorimetrically measures kinase activity as the production of ADP, was used to determine ABL kinase reaction velocities. Assays were performed in quadruplicate in black 384 well plates (Corning #3571) in reaction volumes of 10 μL/well. […] The […] substrate peptide for ABL (EAIYAAPFAKKK) as well as the SFK substrate peptide ([…]) were dissolved in the ADP Quest assay buffer (15 mM HEPES, pH 7.4, 20 mM NaCl, 1 mM EGTA, 0.02% Tween-20, 10 mM MgCl2, 0.1 mg/ml bovine γ-globulins), while ATP stocks were prepared in 10 mM Tris-HCl (pH 7.0). Each kinase reaction was initiated by the addition of ATP and read at 5 min intervals for 3 h in a SpectraMax M5 Microplate reader (Molecular Devices). […] The resulting progress curves were analyzed according to the method of Moroco et al.. Briefly, raw fluorescence data were corrected for non-enzymatic ADP production (no kinase or substrate control) and kinase auto-phosphorylation (rate observed in the absence of substrate), and converted to pmol ADP produced using an ADP standard curve generated under the same reaction conditions. The resulting values were normalized to the amount of kinase present in each reaction, and plotted against time. […] Substrate and ATP Km values were determined by non-linear regression analysis using the Michaelis-Menten equation (GraphPad Prism 6).

[5] = biological target: T2, wild type ABL kinase core; assay: ADP Quest kinetic kinase assay, wild type ABL core; assay type: biochemical; settings: for Activation constant Kact: concentration giving half-maximum velocity; for Activation constant Kact / Vmax: mean ± SE; for Vmax: maximal reaction velocity with activator; for Vmax/Kact: overall enhancement of catalytic efficiency
Procedure: The ADP Quest assay (DiscoverRx), which fluorimetrically measures kinase activity as the production of ADP, was used to determine ABL kinase reaction velocities. Assays were performed in quadruplicate in black 384 well plates (Corning #3571) in reaction volumes of 10 μL/well. Recombinant kinase protein concentrations were fixed at 40 ng/well for the wild type ABL core, 9 ng/well for the high affinity linker ABL core, and 250 ng/well for the SRC family kinase HCK. The Tyr2 substrate peptide for ABL (EAIYAAPFAKKK) as well as the SFK substrate peptide (YIYGSFK) were dissolved in the ADP Quest assay buffer (15 mM HEPES, pH 7.4, 20 mM NaCl, 1 mM EGTA, 0.02% Tween-20, 10 mM MgCl2, 0.1 mg/ml bovine γ-globulins), while ATP stocks were prepared in 10 mM Tris-HCl (pH 7.0). Each kinase reaction was initiated by the addition of ATP and read at 5 min intervals for 3 h in a SpectraMax M5 Microplate reader (Molecular Devices). To determine the substrate Km for ABL kinases, the ATP concentration was fixed at 50 μM and the substrate peptide was serially diluted from 0.2–200 μM. For ABL kinase ATP Km determination, the substrate concentration was fixed at the respective substrate Km for each of the kinases, and the ATP concentration was titrated over the range of 0.2–200 μM. The resulting progress curves were analyzed according to the method of Moroco et al.. Briefly, raw fluorescence data were corrected for non-enzymatic ADP production (no kinase or substrate control) and kinase auto-phosphorylation (rate observed in the absence of substrate), and converted to pmol ADP produced using an ADP standard curve generated under the same reaction conditions. The resulting values were normalized to the amount of kinase present in each reaction, and plotted against time. The linear portion of each progress curve was fit by regression analysis to determine the reaction velocity. Substrate and ATP Km values were determined by non-linear regression analysis using the Michaelis-Menten equation (GraphPad Prism 6).
Half-maximal effective concentrations (EC50) and activation constants (Kact) were determined for the ABL kinase core by both dipyridamole and the known ABL activator, DPH (5-(1,3-diaryl-1H-pyrazol-4-yl)hydantoin; Sigma-Aldrich). The kinase was pre-incubated with each compound (10 nM to 100 μM) for 30 min at room temperature, followed by kinase assay with the substrate and ATP concentrations fixed at their respective Km values. The rate of each reaction was plotted against compound concentration, and analyzed by non-linear regression analysis (GraphPad Prism 6) to determine the EC50 value. To determine the activation constant Kact, the basal rate of kinase activity was subtracted from the rates of reaction in the presence of each compound concentration, and plotted as a function of compound concentration. The resulting curves obeyed saturation kinetics and were best-fit by the following equation [19]: Va= Vact[L]/(Kact+[L]) where Va is the reaction velocity in the presence of each activator concentration, Vact is the maximal reaction velocity, L is the activator concentration, and Kact is the activator concentration that yields half-maximal reaction velocity.

SRC-family kinase HCK = biological target: T3, SRC-family kinase HCK (Homo sapiens, UniProt P08631, Q523E/Q524E/Q525I); assay: ADP Quest kinetic kinase assay, HCK; assay type: biochemical; settings: 1 μM; recombinant near-full-length downregulated HCK
T3 construct: made in house; host or cells: Sf9 insect cells
T3 sequence (P08631 78-526 Q523E/Q524E/Q525I limits assumed): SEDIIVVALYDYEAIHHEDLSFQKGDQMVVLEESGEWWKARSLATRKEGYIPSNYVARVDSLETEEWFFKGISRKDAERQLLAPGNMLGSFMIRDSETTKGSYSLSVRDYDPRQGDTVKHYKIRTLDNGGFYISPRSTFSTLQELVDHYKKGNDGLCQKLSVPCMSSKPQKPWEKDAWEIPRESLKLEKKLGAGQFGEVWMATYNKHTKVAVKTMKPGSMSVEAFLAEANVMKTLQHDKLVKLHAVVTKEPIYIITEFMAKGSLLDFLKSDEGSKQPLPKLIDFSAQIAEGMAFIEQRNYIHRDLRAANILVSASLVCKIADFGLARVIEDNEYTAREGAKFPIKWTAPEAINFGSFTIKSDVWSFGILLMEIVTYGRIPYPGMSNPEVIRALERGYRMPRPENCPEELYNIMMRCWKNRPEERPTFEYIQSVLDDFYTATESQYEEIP
Procedure: The ADP Quest assay (DiscoverRx), which fluorimetrically measures kinase activity as the production of ADP, was used to determine ABL kinase reaction velocities. Assays were performed in quadruplicate in black 384 well plates (Corning #3571) in reaction volumes of 10 μL/well. Recombinant kinase protein concentrations were fixed at 40 ng/well for the wild type ABL core, 9 ng/well for the high affinity linker ABL core, and 250 ng/well for the SRC family kinase HCK. […] Each kinase reaction was initiated by the addition of ATP and read at 5 min intervals for 3 h in a SpectraMax M5 Microplate reader (Molecular Devices). […] The resulting progress curves were analyzed according to the method of Moroco et al.. Briefly, raw fluorescence data were corrected for non-enzymatic ADP production (no kinase or substrate control) and kinase auto-phosphorylation (rate observed in the absence of substrate), and converted to pmol ADP produced using an ADP standard curve generated under the same reaction conditions. […] Substrate and ATP Km values were determined by non-linear regression analysis using the Michaelis-Menten equation (GraphPad Prism 6).

ABL N32L WT protein = biological target: T4, ABL N32L WT protein (Homo sapiens, UniProt P00519, DEL15-56); assay: Differential scanning fluorimetry; assay type: binding; settings: compound 100 μM, N32L 1 μM, vs DMSO
T4 construct: corresponding to residues 2–255 with an internal deletion of residues 15–56; Gly-His6 (GHHHHHH) (N); made in house; host or cells: E. coli Rosetta2(DE3)pLysS
Procedure: Hit compounds (100 μM) were pre-incubated with the ABL N32L WT protein (1 μM) for 30 minutes in bicine assay buffer (10 mM bicine, 150 mM NaCl, pH 8.0). SYPRO Orange (Sigma) was added at 5X final concentration and fluorimetry profiles were acquired with a StepOnePlus real-time quantitative PCR instrument (Applied Biosystems) and software (version 2.3). Assays were performed in duplicate in sealed MicroAmp Fast 96-well qPCR plates (Applied Biosystems), and control reactions without proteins were included to correct for background fluorescence. Assays were equilibrated at 25°C for 2 minutes, followed by an increase in temperature at the rate of 1% (1.6°C/min) to 99°C, with continuous data collection. Mean fluorescence intensities, after subtracting background fluorescence, were plotted against temperature. Non-linear regression analysis using the Boltzmann sigmoid function in GraphPad Prism 6 was used to determine the Tm values, the midpoint of the melt curve between the minimum and maximum fluorescence intensities.

ABL N32L protein = biological target: T5, ABL N32L protein (Homo sapiens, UniProt P00519, DEL15-56); assay: Surface plasmon resonance, immobilized ABL N32L; assay type: binding
T5 construct: corresponding to residues 2–255 with an internal deletion of residues 15–56; Gly-His6 (GHHHHHH) (N); made in house; host or cells: E. coli Rosetta2(DE3)pLysS
Procedure: (§2) SPR analysis was performed on a BIAcore T100 instrument (GE Healthcare) using four-channel CM5 biosensor chips at 25°C. Recombinant purified ABL proteins were covalently attached to the CM5 chip via standard amine coupling chemistry. Compound 142 (dipyridamole; Prestwick Chemical) was prepared in 20 mM Tris-HCl, pH 8.3, 150 mM NaCl and 0.1% DMSO and flowed past the immobilized ABL protein channel and a reference channel on the biosensor at a flow rate of 50 μL/min for 3 min over a range of concentrations. The initial binding reaction was followed by dissociation for 5 min, and the chip surface was regenerated using 20 mM Tris-HCl, pH 8.3, 150 mM NaCl, 0.1% DMSO, 0.05% Tween 20 and 1 mM DTT at a flow rate of 50 μL/min for 10 min. Sensorgrams were recorded in triplicate, corrected for buffer effects, and fitted with the 1:1 Langmuir binding model using the BIAevaluation software suite version 2.0.4 (GE Healthcare).

ABL SH3 domain = biological target: T6, ABL SH3 domain (Homo sapiens, UniProt P00519); assay: FP assay with isolated ABL SH3 domain and p41 probe; assay type: binding; settings: significant inhibition at 3 and 10 μM
T6 construct: we performed FP assays with the N32L protein as well as the isolated ABL SH3 domain; made in house
T6 sequence (P00519 61-121 limits assumed): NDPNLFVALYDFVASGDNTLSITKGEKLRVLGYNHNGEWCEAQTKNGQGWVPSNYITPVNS
Procedure: as §1

isolated ABL SH3 domain = biological target: T7, isolated ABL SH3 domain (Homo sapiens, UniProt P00519); assay: Surface plasmon resonance, isolated SH3 domain; assay type: binding; settings: SPR, data not shown
T7 construct: we performed FP assays with the N32L protein as well as the isolated ABL SH3 domain; made in house
T7 sequence (P00519 61-121 limits assumed): as above
Procedure: as §2

Row | Effect of unlabeled peptide on FP signal (competition) ([1]; p41 probe 50 nM, N32L 20 μg/well, unlabeled peptide 2.5 to 100 μM) | Compound | EC50 [2] [µM] | Effect on ABL phosphorylation (pY412, pY245, pY89), compound alone [3] | Effect on kinase activity of ABL core with HAL substitution [4] | Activation constant Kact [5] [µM] | Vmax [5] [µM] | Vmax/Kact [5] | Effect on HCK reaction velocity (SRC-family kinase HCK) | Effect on ABL phosphorylation (pY412, pY245, pY89) in the presence of DPH ([3]; compound 142 1–10 μM plus DPH 10 μM) | Inhibition of FP signal relative to DMSO controls (retest) ([1]; 10 μM, quadruplicate, screening assay conditions, p < 0.05) | FP signal with ABL N32L protein over compound concentration range ([1]; significant inhibition at 3 and 10 μM) | Decrease in Tm (ABL N32L WT protein) | kon (ABL N32L protein; 1:1 Langmuir binding model, 25°C, read-out: Association rate constant) [M⁻¹ s⁻¹] | koff (ABL N32L protein; 1:1 Langmuir binding model, 25°C, read-out: Dissociation rate constant) [s⁻¹] | Kd (ABL N32L protein; SPR, ABL N32L protein, read-out: Equilibrium dissociation constant (KD), ratio kd/ka) [µM] | FP signal with ABL SH3 protein over compound concentration range (ABL SH3 domain) | Kd (isolated ABL SH3 domain) [µM] | Stimulation of wild type ABL kinase activity relative to DMSO control ([5]; 10 μM, ATP and substrate at Km)
1 | no effect | QKEGERALPSIP [non-specific peptide] | – | – | – | – | – | – | – | – | – | – | – | – | – | – | – | – | –
2 | – | 5-(1,3-diaryl-1H-pyrazol-4-yl)hydantoin [DPH] | 1.11 ± 0.5 | very small effect | did not activate | 1.02 ± 0.07 | 1.90 ± 0.4 | 1.86 | – | – | – | – | – | – | – | – | – | – | –
3 | – | OCCN(CCO)c1nc(N2CCCCC2)c2nc(N(CCO)CCO)nc(N3CCCCC3)c2n1 [compound 142, dipyridamole] | 0.63 ± 0.07 | did not affect phosphorylation | did not affect | 0.4 ± 0.02 | 3.2 ± 0.28 | 8.00 | no effect | remarkable enhancement of phosphorylation | significant inhibition | concentration-dependent decrease | more than 2 °C | 3870 ± 590000 | 0.027 ± 7.2e-05 | 6.9 | concentration-dependent decrease | 30 | about 40%
